One data set deals with CYP2C9 (Homo sapiens, UniProt P11712). Briefly: CYP2C9 inhibition.
Data set [1] addresses hERG (human ether-a-go-go K+ ion channel) (Homo sapiens, UniProt Q12809). Briefly: hERG QPatch assay. Background: The hERG channel carries a current that helps repolarise heart muscle cells.
Procedure: (§3) LM – Liver microsome (half-life in minutes)
PPB – Plasma Protein Binding
(§4) PS – Plasma Stability (% remaining at 2 hours)
Data set [2] has as its system 6-OHDA Parkinson's mouse model. Briefly: 6-OHDA Parkinson's mouse model, oral gavage dose response (rotations, striatal dopamine). Particulars: for ED50: Mus musculus.
Procedure: 6-hydroxydopamine (6-OHDA; Sigma) was dissolved in saline with 0.2% ascorbic acid to a final injected dose of 12 μg as previously described.[18]
Mice received analgesics and fluids and were placed on a heat pad until recovery.
D-amphetamine (2 mg/kg) was administered either 17 or 21 days post-6-OHDA; net ipsilateral turns over 10 min were recorded.
Striatal dopamine and metabolites were quantified by LC-MS/MS as previously described.[36]
(B) Amphetamine-induced ipsilateral rotations at Day 21, and (C–E) levels of striatal dopamine, 3,4-dihydroxyphenylacetic acid (DOPAC) and homovanillic acid (HVA) 28 days following saline or 6-OHDA injection. […] Data in B–E are presented as box-whisker plot with median (line), 25th to 75th percentiles (box) and full range (whiskers) shown. **P < 0.01, ***P < 0.001 by one-way ANOVA (two-tailed), and Dunnett’s post-test comparing to untreated 6-OHDA group.
administration to fasted 8–10-week-old C57BL/6J male mice was performed using an adapted method as previously described (30). At the relevant time point following dosing, blood samples were collected for plasma and the brain perfused with PBS for 5 min; CSF was also collected from separate groups of mice. Brain homogenates were prepared from dissected brains by homogenizing total brain (0.5 g) with four volumes (2 mL) of deionized water.
C57BL/6J mice were anaesthetized using ketamine hydrochloride (100 mg/kg) and xylazine (10 mg/kg), and were placed into a stereotactic frame with nose and ear bars specially adapted for mice. A digital stereotaxic instrument was used with a 5 μL Hamilton syringe to deliver either a sterile saline solution (0.9% sodium chloride) containing 0.2% ascorbic acid, 6-hydroxydopamine (6-OHDA; 12 μg) dissolved in saline containing 0.2% ascorbic acid, α-synuclein pre-formed fibrils (PFF-Syn; 8 μg in PBS), or PBS alone, into the right dorsal striatum of mice at the following stereotaxic coordinates relative to bregma (mm): -2.0 medial-lateral, + 0.5 anterior-posterior, -3.0 mm dorsal-ventral below the pial surface. After drilling a 1 mm burr-hole in the skull, a 2 μl volume of solution was infused at the target site at the rate of 0.5 μl per minute. The needle was held in place for at least 5 minutes after injection to minimize retrograde flow along the needle tract. Mice were given a subcutaneous injection of sterile Ringer ’s solution to help facilitate recovery and carprofen (5 mg/kg) for post-operative pain relief and were placed on a heat-pad until complete recovery from anaesthesia.
8-10 week-old C57BL/6J male mice were housed under a 12-hr light cycle in a SPF climate-controlled facility with food and water provided ad libitum for two weeks prior to study initiation.
mg/kg), or by drinking water (0.3mg/ml), with studies performed at UQ or by CROs. […]
For the next data set, the target named is T1, NLRC4 inflammasome (Mus musculus, UniProt Q3UP24).
T1 construct: marrow cells were isolated from C57BL/6J mice and cultured macrophages stimulated with S; endogenous in cells; host or cells: bone-marrow-derived macrophages from C57BL/6J mice
T1 sequence (Q3UP24 whole entry): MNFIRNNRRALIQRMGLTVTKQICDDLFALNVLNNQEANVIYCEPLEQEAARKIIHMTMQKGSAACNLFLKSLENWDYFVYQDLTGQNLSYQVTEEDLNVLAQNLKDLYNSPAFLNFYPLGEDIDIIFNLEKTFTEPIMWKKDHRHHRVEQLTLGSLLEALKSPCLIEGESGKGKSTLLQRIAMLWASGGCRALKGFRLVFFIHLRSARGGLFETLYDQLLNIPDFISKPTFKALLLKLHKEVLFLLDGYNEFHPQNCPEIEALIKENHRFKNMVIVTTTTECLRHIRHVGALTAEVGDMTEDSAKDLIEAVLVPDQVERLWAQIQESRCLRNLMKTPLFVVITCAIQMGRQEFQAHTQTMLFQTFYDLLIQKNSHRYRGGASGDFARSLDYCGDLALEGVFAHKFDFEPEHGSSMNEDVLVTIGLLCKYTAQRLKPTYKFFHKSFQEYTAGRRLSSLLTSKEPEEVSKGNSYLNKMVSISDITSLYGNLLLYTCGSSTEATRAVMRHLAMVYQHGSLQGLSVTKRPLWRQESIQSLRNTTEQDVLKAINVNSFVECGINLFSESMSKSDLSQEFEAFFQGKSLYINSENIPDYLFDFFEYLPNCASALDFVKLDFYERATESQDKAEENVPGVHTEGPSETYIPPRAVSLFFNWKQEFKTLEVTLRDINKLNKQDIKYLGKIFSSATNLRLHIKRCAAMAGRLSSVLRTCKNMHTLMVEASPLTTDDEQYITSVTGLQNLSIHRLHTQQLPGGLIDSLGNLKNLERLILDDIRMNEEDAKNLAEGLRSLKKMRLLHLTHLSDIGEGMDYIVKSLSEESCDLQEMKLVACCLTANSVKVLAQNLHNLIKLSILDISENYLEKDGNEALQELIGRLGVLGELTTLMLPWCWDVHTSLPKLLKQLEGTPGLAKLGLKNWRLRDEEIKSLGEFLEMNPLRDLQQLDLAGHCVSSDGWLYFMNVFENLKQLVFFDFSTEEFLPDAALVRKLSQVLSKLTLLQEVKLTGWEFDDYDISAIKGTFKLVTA
Nature of the data set: NLRC4 inflammasome activation by S. typhimurium in bone marrow macrophages. It counts as cell-based. Particulars: C57BL/6J bone marrow macrophages stimulated with S. typhimurium; n=2. The source says:
(§1) marrow cells were isolated from C57BL/6J mice and cultured macrophages stimulated with S.
(§2) typhimurium (S.typ) and poly(dA:dT) to activate [A] NLRC4 and [B] AIM2 inflammasomes. No […]

For the next data set, the target named is T2, AIM2 inflammasome (Mus musculus, UniProt Q91VJ1).
T2 construct: marrow cells were isolated from C57BL/6J mice and cultured macrophages stimulated with S; endogenous in cells; host or cells: bone-marrow-derived macrophages from C57BL/6J mice
T2 sequence (Q91VJ1 1-354): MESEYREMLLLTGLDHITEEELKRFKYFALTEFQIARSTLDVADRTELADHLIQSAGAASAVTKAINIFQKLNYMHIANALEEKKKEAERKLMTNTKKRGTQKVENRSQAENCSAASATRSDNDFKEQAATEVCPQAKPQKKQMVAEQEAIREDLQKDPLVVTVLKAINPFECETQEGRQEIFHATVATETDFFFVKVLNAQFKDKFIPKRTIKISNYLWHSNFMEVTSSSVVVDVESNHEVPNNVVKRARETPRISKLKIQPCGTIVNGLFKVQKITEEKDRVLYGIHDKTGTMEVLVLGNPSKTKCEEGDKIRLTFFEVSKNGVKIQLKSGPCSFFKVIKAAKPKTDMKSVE
Nature of the data set: AIM2 inflammasome activation by poly(dA:dT) in bone marrow macrophages. It counts as cell-based. To be noted: C57BL/6J bone marrow macrophages stimulated with poly(dA:dT); n=2.
From the text: as §1, §2

A further data set has as its system healthy subjects. More on the design: method as in NCT04015076. To be noted: randomized, double-blinded, placebo-controlled, single and multiple ascending dose, ref NCT04015076; cited from earlier work.
The nature of the next data set: Human plasma stability. To be noted: % remaining at 2 hours.
Data set [3] is described as follows: Mouse plasma protein binding.
Procedure: as §3
PPB – Plasma Protein Binding
as §4
A further data set deals with T3, CYP1A2 (Homo sapiens, UniProt P05177).
T3 sequence (P05177 1-516): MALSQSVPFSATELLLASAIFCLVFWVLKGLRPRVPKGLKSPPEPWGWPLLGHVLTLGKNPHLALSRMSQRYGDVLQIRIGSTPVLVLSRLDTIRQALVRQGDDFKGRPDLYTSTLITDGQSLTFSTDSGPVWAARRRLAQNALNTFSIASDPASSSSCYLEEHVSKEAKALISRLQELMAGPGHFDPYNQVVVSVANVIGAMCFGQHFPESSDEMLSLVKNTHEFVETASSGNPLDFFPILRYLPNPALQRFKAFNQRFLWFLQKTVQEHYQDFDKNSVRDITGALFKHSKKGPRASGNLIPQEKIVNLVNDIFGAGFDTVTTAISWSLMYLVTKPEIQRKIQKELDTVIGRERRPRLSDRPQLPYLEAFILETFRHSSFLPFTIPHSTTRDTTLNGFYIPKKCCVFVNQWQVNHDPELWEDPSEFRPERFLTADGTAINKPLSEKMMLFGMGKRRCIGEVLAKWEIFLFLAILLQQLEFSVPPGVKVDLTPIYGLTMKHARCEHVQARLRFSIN
Nature of the data set: CYP1A2 inhibition.

Data set [4] in a line: Human plasma protein binding.
Procedure: as §3
PPB – Plasma Protein Binding
as §4
A further data set deals with CYP3A4 (Homo sapiens, UniProt P08684). Nature of the data set: CYP3A4 inhibition.
Chain of CYP3A4 (P08684 whole entry): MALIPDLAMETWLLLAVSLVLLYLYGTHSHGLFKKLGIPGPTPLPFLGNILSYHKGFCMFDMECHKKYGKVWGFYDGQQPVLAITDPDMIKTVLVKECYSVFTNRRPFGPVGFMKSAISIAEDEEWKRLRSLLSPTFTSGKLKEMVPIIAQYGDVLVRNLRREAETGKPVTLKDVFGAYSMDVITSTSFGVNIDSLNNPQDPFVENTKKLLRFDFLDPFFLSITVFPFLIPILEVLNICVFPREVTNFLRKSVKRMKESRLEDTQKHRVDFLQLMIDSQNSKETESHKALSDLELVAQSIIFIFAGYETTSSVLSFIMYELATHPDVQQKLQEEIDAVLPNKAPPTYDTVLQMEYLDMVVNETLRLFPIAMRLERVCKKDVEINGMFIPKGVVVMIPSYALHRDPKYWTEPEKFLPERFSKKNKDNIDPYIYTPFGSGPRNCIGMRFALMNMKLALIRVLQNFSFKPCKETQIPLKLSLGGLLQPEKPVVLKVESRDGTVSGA
A short description of data set [5]: Mouse liver microsome stability. Particulars: liver microsomes. (In general: Microsomes from liver hold many membrane-bound enzymes, among them those of drug oxidation.)
Procedure: as §3
PPB – Plasma Protein Binding
as §4
In data set [6] the test system is 95 targets (Eurofins Cerep panel). Briefly: Off-target screen, Eurofins Cerep panel (binding, enzyme and uptake assays). To be noted: 10uM. On the procedure:
(10uM) was screened for inhibition or activation activities at 95 targets (Eurofins Cerep panel) in
binding and enzyme and uptake assays. […]

A short description of data set [7]: Human liver microsome stability. To be noted: liver microsomes.
Procedure: as §3
PPB – Plasma Protein Binding
as §4
A further data set is described as follows: Mouse plasma stability. To be noted: % remaining at 2 hours.
For another data set, the target named is CYP2D6 (Homo sapiens, UniProt P10635). Nature of the data set: CYP2D6 inhibition.
Chain of CYP2D6 (P10635 whole entry): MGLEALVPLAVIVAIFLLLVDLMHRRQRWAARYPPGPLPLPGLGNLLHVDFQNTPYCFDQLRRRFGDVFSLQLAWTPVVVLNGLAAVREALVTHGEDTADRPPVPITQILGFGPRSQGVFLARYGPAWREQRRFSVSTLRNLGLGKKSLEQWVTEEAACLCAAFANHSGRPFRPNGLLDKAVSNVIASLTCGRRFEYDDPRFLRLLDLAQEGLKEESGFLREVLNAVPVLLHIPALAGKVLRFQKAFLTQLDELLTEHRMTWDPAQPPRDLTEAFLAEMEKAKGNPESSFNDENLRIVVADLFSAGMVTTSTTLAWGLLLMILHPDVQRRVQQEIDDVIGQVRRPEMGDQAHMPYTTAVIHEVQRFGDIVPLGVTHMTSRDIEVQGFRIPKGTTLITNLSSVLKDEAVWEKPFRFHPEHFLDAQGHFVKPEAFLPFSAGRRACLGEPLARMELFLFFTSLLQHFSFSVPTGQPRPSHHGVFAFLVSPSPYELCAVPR

Read-outs that look alike come from different tables or passages of the source. A value given as a limit tells only on which side of the number the result lay.

Chain of CYP2C9 (P11712 whole entry): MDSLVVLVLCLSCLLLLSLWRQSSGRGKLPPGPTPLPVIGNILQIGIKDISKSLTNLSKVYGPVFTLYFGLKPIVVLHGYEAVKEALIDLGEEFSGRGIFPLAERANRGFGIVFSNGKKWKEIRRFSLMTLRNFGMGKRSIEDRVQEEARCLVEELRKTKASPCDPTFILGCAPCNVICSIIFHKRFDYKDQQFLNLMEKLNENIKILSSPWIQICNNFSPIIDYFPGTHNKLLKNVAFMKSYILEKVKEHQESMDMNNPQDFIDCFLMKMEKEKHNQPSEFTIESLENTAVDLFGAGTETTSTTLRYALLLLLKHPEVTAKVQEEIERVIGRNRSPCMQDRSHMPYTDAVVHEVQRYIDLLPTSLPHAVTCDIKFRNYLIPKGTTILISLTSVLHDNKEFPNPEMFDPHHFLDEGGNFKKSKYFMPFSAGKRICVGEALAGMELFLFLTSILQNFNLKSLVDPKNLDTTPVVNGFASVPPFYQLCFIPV
Chain of hERG (human ether-a-go-go K+ ion channel) (Q12809 whole entry): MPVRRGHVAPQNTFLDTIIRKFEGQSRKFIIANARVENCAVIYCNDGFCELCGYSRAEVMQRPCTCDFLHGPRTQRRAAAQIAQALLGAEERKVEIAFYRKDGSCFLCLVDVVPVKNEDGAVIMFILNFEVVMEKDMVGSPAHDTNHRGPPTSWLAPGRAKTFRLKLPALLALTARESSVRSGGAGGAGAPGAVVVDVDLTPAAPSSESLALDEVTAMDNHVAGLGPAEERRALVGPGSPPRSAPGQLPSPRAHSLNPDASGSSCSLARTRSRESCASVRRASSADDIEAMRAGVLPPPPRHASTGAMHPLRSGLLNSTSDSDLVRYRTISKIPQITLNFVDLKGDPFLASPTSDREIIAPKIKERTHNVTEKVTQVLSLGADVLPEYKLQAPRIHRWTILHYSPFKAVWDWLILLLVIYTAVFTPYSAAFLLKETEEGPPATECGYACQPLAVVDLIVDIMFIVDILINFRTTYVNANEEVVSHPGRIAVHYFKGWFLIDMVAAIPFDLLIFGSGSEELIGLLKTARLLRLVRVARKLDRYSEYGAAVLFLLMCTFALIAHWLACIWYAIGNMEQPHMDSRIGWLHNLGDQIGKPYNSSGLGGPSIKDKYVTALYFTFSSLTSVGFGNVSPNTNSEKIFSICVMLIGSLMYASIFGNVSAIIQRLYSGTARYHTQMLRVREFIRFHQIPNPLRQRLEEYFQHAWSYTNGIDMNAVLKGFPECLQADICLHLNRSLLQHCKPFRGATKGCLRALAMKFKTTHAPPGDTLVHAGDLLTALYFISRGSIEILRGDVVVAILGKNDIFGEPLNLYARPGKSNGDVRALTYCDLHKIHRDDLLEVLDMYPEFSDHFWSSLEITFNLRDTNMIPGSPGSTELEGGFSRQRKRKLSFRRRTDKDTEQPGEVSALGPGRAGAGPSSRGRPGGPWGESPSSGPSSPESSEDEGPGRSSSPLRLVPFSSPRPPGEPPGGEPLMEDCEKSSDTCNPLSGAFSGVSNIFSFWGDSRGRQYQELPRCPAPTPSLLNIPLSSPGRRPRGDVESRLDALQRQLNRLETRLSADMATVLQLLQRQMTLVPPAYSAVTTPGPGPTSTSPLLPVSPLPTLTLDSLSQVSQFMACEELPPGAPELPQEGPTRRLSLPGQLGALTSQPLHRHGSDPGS
Procedure for CYP2C9: as §3
PPB – Plasma Protein Binding
as §4
Procedure for CYP2D6: as §3
PPB – Plasma Protein Binding
as §4
Procedure for CYP3A4: as §3
PPB – Plasma Protein Binding
as §4
Procedure for Human plasma stability: as §3
PPB – Plasma Protein Binding
as §4
Procedure for Mouse plasma stability: as §3
PPB – Plasma Protein Binding
as §4

Turning to `CC(C)n1ccc(S(=O)(=O)NC(=O)Nc2c3c(cc4c2CCC4)CCC3)n1` [MCC7840], the IC50 against CYP2C9 is 46 µM; on CYP1A2, 19 µM; against CYP3A4 it was over 50 µM; against CYP2D6, over 50 µM. For the same compound, the inhibition at 30 µM in data set [1] worked out at 4.5 ± 3.1%. Further, the results for the median effective dose (ED50) in data set [2] (read-out: ED50 for dopamine loss (striatal dopamine content)) and in data set [2] (read-out: ED50 for motor behaviour (amphetamine-induced ipsilateral rotations)) were about 2.2 mg/kg and about 0.9 mg/kg, respectively. Further, in data set [2] (all doses (1, 3, 10 mg/kg p.o. daily), Day 21), the Amphetamine-induced rotations result is given as “significantly reduced”. In addition, in data set [2] (all treatment groups (1, 3, 10 mg/kg p.o. daily), Day 28), the “Striatal dopamine and its metabolites DOPAC and HVA” value was “significant preservation”. For the same compound, the “Inhibitory activity at NLRC4 inflammasome” value at NLRC4 inflammasome is reported as “not active”. The “Inhibitory activity at AIM2 inflammasome” value at AIM2 inflammasome is recorded as “not active”. Besides, the “Safety, tolerability and pharmacokinetics in Phase I” value in the data set on healthy subjects is “excellent safety, tolerability and pharmacokinetic profile”. In “Human plasma stability”, the “Human % PS” value is recorded as 100%. Moreover, the fraction unbound is 0.005 in data set [3] (Mouse % PPB, plasma protein binding); under 0.01 in [3] (Plasma protein binding, stated in text with mouse pharmacokinetics); 0.003 in [4]. In addition, the half-life in [5] and in data set [7] was over 2.42 h throughout. The “Inhibition or activation activity at any of 95 off-targets” value in data set [6] is at most 35%. Further, the “Mouse % PS” value in “Mouse plasma stability” is listed as 89%.

In general, IC50 refers to the concentration at which inhibition is half-maximal. Higher therefore signals weaker potency. Broadly, the inhibition is the change of the read-out against control, counted positive when it falls. A low value points to a response near the control. A word on the ED50: it is the dose that gives a 50% effect, or the effect in half of the subjects. The term fraction unbound denotes the share of the substance not bound to proteins or other matrix. Low readings indicate little free substance, high ones much free substance. The term half-life denotes the time needed for the level to fall by half in the phase considered. Low values mean fast loss, high ones slow loss.

Values taken from publication PMC13058460, “PET-MRI biomarkers reveal efficacy of a novel NLRP3 inhibitor in Parkinson’s disease models” (Brain, 2025).
